Data published in ChEMBL document CHEMBL1201862, “PubChem BioAssay data set” (2004).
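Five compound concentrations were applied to cells in 96-well plates for 48 hours; endpoints were derived by simple linear interpolation of the resulting dose-response curve. GI50: concentration for 50% inhibition of growth.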 Active and inactive are the calls of the source. Cut-off read from the data, not from the text of the source: active = GI50 up to about 1.1 µM and inactive = higher.

Key:
Experiment in all cases: growth of human tumour cells (NCI), 48 h
NCI-H460 = test system: NCI-H460
SF-295 = test system: SF-295
A549 = test system: A549
M19-MEL = test system: M19-MEL
MOLT-4 = test system: MOLT-4
HOP-62 = test system: HOP-62
DMS-114 = test system: DMS-114
UACC-62 = test system: UACC-62
UACC-257 = test system: UACC-257
SF-268 = test system: SF-268
HL-60 = test system: HL-60
NCI-H23 = test system: NCI-H23
LOX IMVI = test system: LOX IMVI
CCRF-CEM = test system: CCRF-CEM
Malme-3M = test system: Malme-3M
COLO 205 = test system: COLO 205
SNB-78 = test system: SNB-78
NCI-H226 = test system: NCI-H226
LXFL 529 = test system: LXFL 529
HT-29 = test system: HT-29
SNB-75 = test system: SNB-75
U-251 = test system: U-251
OVCAR-3 = test system: OVCAR-3
ACHN = test system: ACHN
DLD-1 = test system: DLD-1
SNB-19 = test system: SNB-19
TK-10 = test system: TK-10
KM-20L2 = test system: KM-20L2
UO-31 = test system: UO-31
M14 = test system: M14
SW-620 = test system: SW-620
NCI-H522 = test system: NCI-H522
RXF 393 = test system: RXF 393
HCT-116 = test system: HCT-116
K562 = test system: K562
HCT-15 = test system: HCT-15
SK-OV-3 = test system: SK-OV-3
IGROV-1 = test system: IGROV-1
RPMI-8226 = test system: RPMI-8226
KM12 = test system: KM12
HCC 2998 = test system: HCC 2998
EKVX = test system: EKVX
SK-MEL-28 = test system: SK-MEL-28
OVCAR-8 = test system: OVCAR-8
786-0 = test system: 786-0
DMS-273 = test system: DMS-273
SN12C = test system: SN12C
SF-539 = test system: SF-539
SK-MEL-5 = test system: SK-MEL-5
MDA-N = test system: MDA-N
BT-549 = test system: BT-549
MCF7 = test system: MCF7
DU-145 = test system: DU-145
MDA-MB-231 = test system: MDA-MB-231
SR = test system: SR
MDA-MB-435 = test system: MDA-MB-435
HOP-92 = test system: HOP-92
A498 = test system: A498
CAKI-1 = test system: CAKI-1
OVCAR-5 = test system: OVCAR-5
SK-MEL-2 = test system: SK-MEL-2
T47D = test system: T47D
Hs-578T = test system: Hs-578T
PC-3 = test system: PC-3
OVCAR-4 = test system: OVCAR-4
NCI/ADR-RES = test system: NCI/ADR-RES

O=C1CC2CC=C[C@H]3c4cc5c(cc4C(=O)N1C23)OCO5 (some centres not stated)
GI50 (NCI-H460): > 50 µM (inactive)
GI50 (SF-295): > 50 µM (inactive)
GI50 (A549): > 50 µM (inactive)
GI50 (M19-MEL): > 50 µM (inactive)
GI50 (MOLT-4): > 50 µM (inactive)
GI50 (HOP-62): > 50 µM (inactive)
GI50 (DMS-114): > 50 µM (inactive)
GI50 (UACC-62): > 50 µM (inactive)
GI50 (UACC-257): > 50 µM (inactive)
GI50 (SF-268): > 50 µM (inactive)
GI50 (HL-60): > 50 µM (inactive)
GI50 (NCI-H23): > 50 µM (inactive)
GI50 (LOX IMVI): > 50 µM (inactive)
GI50 (CCRF-CEM): > 50 µM (inactive)
GI50 (Malme-3M): > 50 µM (inactive)
GI50 (COLO 205): > 50 µM (inactive)
GI50 (SNB-78): > 50 µM (inactive)
GI50 (NCI-H226): > 50 µM (inactive)
GI50 (LXFL 529): > 50 µM (inactive)
GI50 (HT-29): > 50 µM (inactive)
GI50 (SNB-75): > 50 µM (inactive)
GI50 (U-251): > 50 µM (inactive)
GI50 (OVCAR-3): > 50 µM (inactive)
GI50 (ACHN): > 50 µM (inactive)
GI50 (DLD-1): > 50 µM (inactive)
GI50 (SNB-19): > 50 µM (inactive)
GI50 (TK-10): > 50 µM (inactive)
GI50 (KM-20L2): > 50 µM (inactive)
GI50 (UO-31): > 50 µM (inactive)
GI50 (M14): > 50 µM (inactive)
GI50 (SW-620): > 50 µM (inactive)
GI50 (NCI-H522): > 50 µM (inactive)
GI50 (RXF 393): > 50 µM (inactive)
GI50 (HCT-116): > 50 µM (inactive)
GI50 (K562): > 50 µM (inactive)
GI50 (HCT-15): > 50 µM
GI50 (SK-OV-3): > 50 µM (inactive)
GI50 (IGROV-1): > 50 µM (inactive)
GI50 (RPMI-8226): > 50 µM (inactive)
GI50 (KM12): > 50 µM (inactive)
GI50 (HCC 2998): > 50 µM (inactive)
GI50 (EKVX): > 50 µM (inactive)
GI50 (SK-MEL-28): > 50 µM (inactive)
GI50 (OVCAR-8): > 50 µM (inactive)
GI50 (786-0): > 50 µM (inactive)
GI50 (DMS-273): > 50 µM (inactive)
GI50 (SN12C): > 50 µM (inactive)
GI50 (SF-539): > 50 µM (inactive)

Cc1cc(N(CCC#N)CCC#N)ccc1/C=C1\SC(=S)NC1=O
GI50 (NCI-H460): 30.3 µM (inactive)
GI50 (SK-MEL-5): > 100 µM (inactive)
GI50 (SF-295): 17.5 µM (inactive)
GI50 (A549): 62.4 µM (inactive)
GI50 (MOLT-4): 91 µM (inactive)
GI50 (HOP-62): 22.7 µM (inactive)
GI50 (MDA-N): > 100 µM (inactive)
GI50 (BT-549): 37.2 µM (inactive)
GI50 (UACC-62): 48.6 µM (inactive)
GI50 (UACC-257): > 100 µM (inactive)
GI50 (SF-268): 23.6 µM (inactive)
GI50 (HL-60): 32.5 µM (inactive)
GI50 (NCI-H23): > 100 µM (inactive)
GI50 (LOX IMVI): > 100 µM (inactive)
GI50 (CCRF-CEM): 25.9 µM (inactive)
GI50 (Malme-3M): 52.1 µM (inactive)
GI50 (COLO 205): > 100 µM (inactive)
GI50 (NCI-H226): > 100 µM (inactive)
GI50 (HT-29): > 100 µM (inactive)
GI50 (MCF7): 54.2 µM (inactive)
GI50 (SNB-75): 11.6 µM (inactive)
GI50 (U-251): 42.5 µM (inactive)
GI50 (OVCAR-3): 51.3 µM (inactive)
GI50 (ACHN): > 100 µM (inactive)
GI50 (SNB-19): > 100 µM (inactive)
GI50 (TK-10): > 100 µM (inactive)
GI50 (DU-145): > 100 µM (inactive)
GI50 (MDA-MB-231): > 100 µM (inactive)
GI50 (SR): 22 µM (inactive)
GI50 (UO-31): 99.8 µM (inactive)
GI50 (M14): 40.3 µM (inactive)
GI50 (MDA-MB-435): 82.2 µM (inactive)
GI50 (SW-620): > 100 µM (inactive)
GI50 (HOP-92): 36.4 µM (inactive)
GI50 (NCI-H522): 19.4 µM (inactive)
GI50 (RXF 393): 19.8 µM (inactive)
GI50 (A498): 49.8 µM (inactive)
GI50 (HCT-116): 54.2 µM (inactive)
GI50 (K562): 40 µM (inactive)
GI50 (HCT-15): > 100 µM
GI50 (SK-OV-3): 21.5 µM (inactive)
GI50 (IGROV-1): 65.3 µM (inactive)
GI50 (CAKI-1): 41.4 µM (inactive)
GI50 (OVCAR-5): 34.9 µM (inactive)
GI50 (SK-MEL-2): > 100 µM (inactive)
GI50 (RPMI-8226): 17.2 µM (inactive)
GI50 (KM12): 62.2 µM (inactive)
GI50 (HCC 2998): > 100 µM (inactive)
GI50 (T47D): 66.7 µM (inactive)
GI50 (EKVX): 51.3 µM (inactive)
GI50 (Hs-578T): 14.2 µM (inactive)
GI50 (SK-MEL-28): > 100 µM (inactive)
GI50 (PC-3): 36.8 µM (inactive)
GI50 (OVCAR-8): 49.3 µM (inactive)
GI50 (786-0): 74.6 µM (inactive)
GI50 (SN12C): > 100 µM (inactive)
GI50 (OVCAR-4): > 100 µM (inactive)
GI50 (NCI/ADR-RES): > 100 µM (inactive)
GI50 (SF-539): 69.5 µM (inactive)
